Experimental data: patent US8431611B2, “Artemisinin derivatives” (Johns Hopkins University, priority 2006, dated 2013)
In brackets after ≈: the same amount, converted by molar mass. Entries after “also recorded” stand apart in the source; their conditions may differ. Like-named read-outs stand apart in the source and are kept apart here.

Legend:
[1] = test system: Normal human foreskin fibroblasts; assay type: cell-based
Protocol: (§1) Normal human foreskin fibroblasts (American Type Culture Collection, Manassas, Va.) were used to grow tachyzoites and to test compounds for activity and cytotoxicity. Cells were maintained in Dulbecco's modified Eagle medium (Gibco, Grand Island, N.Y.) containing 10% fetal bovine serum (Atlas Biologicals, Fort Collins, Colo.), 25 mM HEPES (Gibco), 2 mM L-glutamine, 50 units of penicillin G per ml, and 50 μg of streptomycin sulfate per ml. A culture of the tachyzoites of T. gondii strain 2F, which constitutively expresses cytoplasmic β-galactosidase and is derived from strain RH (5), was a gift from Vern Carruthers, University of Michigan Medical School.
(§2) The compounds were tested for in vitro efficacy against T. gondii and cytotoxicity by previously published methods (9, 10). The median inhibitory dose (50% inhibitory dose [ID50]) and the median cytotoxic dose (50% toxic dose [TD50]) were calculated by extrapolation of the corresponding dose-response curve on a log-linear plot employing the portions of the curve that transected the 50% response point. For each compound, a therapeutic index (TI) was calculated by the formula TI=TD50/ID50.
(§3) Artemisinin was obtained from Holley Pharmaceuticals Co., Inc., Fullerton, Calif. Artemether was generously donated by Huiling Wang, University of Wuhan, China. Trimethoprim was purchased from Sigma Chemical Co. (St. Louis, Mo.). Chlorophenol red-β-D-galactopyranoside (Roche, Indianapolis, Ind.), 100 mM in 100 mM HEPES (pH 7.2), was stored frozen at −80° C. CellTiter 96 AQueous One Solution Reagent for determining cytotoxicity was purchased from Promega Corp., Madison, Wis.

[2] = test system: T. gondii strain 2F; assay: In vitro inhibition of T. gondii (growth inhibition assay); assay type: cell-based, Toxoplasma gondii; conditions: for antitoxoplasma inhibitory activity (growth inhibition assay): in words
Protocol: as §1, §2, §3

[3] = test system: T. gondii tachyzoites; assay: Replication inhibition assay; assay type: cell-based, Toxoplasma gondii; conditions: 10 μg/ml added 2 hours after infection of HFF cells, 26 hours; FIG. 2
Protocol: (§4) FIG. 2 illustrates the replication inhibition assay. T. gondii tachyzoites are allowed to infect HFF cells for 2 hours. Following this, compounds are added to the cells for a final concentration of 10 μg/ml and the infection is allowed to progress for 26 hours. Data are compiled from ten randomly selected fields wherein number of vacuoles and number of parasites within the vacuoles are enumerated. Control represents no drug added.
as §4, with “assay (14).” for “assay.”

[4] = test system: T. gondii tachyzoites; assay: Quantification of invasion using red/green assay (attachment/penetration); assay type: cell-based, Toxoplasma gondii; conditions: 10 μg/ml (range 25-34 μM); FIG. 1
Protocol: (§5) FIG. 1 illustrates the quantification of invasion using red/green assay. Green bars represent internal/penetrated parasites while red bars depict external/attached parasites. Compounds were tested at 10 μg/ml (range 25-34 μM). BAPTA-AM (20 μM) and cytochalasin D (Cyt D, 2 μM) were included as positive controls for inhibition of attachment or penetration, respectively. Data are mean values±SEM of three independent experiments, counting ten random fields for each sample.
as §5, with “red/green assay (8). Black” for “red/green assay. Green”, “while gray” for “while red”

[5] = test system: chloroquine-sensitive Plasmodium falciparum (NF 54); assay: Inhibition of replication of malaria parasites; assay type: cell-based; conditions: unpublished data of J. D'Angelo and G. Posner
[6] = Table 1, T. gondii in human foreskin fibroblasts
[7] = Toxoplasma gondii, Fibroblast, Table 1, T. gondii in human foreskin fibroblasts, read-out: ID50 (the source's name)
[8] = Toxoplasma gondii, Table 2, average of three independent experiments, read-out: ID50 (the source's name)
[9] = Toxoplasma gondii, summary of Table 1, read-out: concentration inhibiting toxoplasma replication
[10] = Table 1, T. gondii in human foreskin fibroblasts, read-out: ID50 (the source's name)
[11] = Table 2, average of three independent experiments, read-out: ID50 (the source's name)

With `CO[C@H]1O[C@@H]2O[C@@]3(C)CC[C@H]4[C@H](C)CC[C@@H]([C@H]1C)[C@@]24OO3` [Artemether, reference compound] the “concentration of 50% cytotoxicity (TD50)” value ([1]; human) was > 160 µg/mL, the ID50 [2, 6] was 0.2 µg/mL (≈ 0.67 µM) and the IC50 [2, 7] was 700 nM. For the same molecule, the IC50 [2, 8] was 370 nM and the IC50 [2, 9] was < 1 µg/mL.

With `C[C@@H]1CC[C@H]2[C@@H](C)C(=O)O[C@@H]3O[C@@]4(C)CC[C@@H]1[C@]32OO4` [Artemisinin] the “inhibition of T. gondii replication” value [3] was “ineffective”, the “inhibition of attachment of T. gondii tachyzoites to HFF cells” value (shortened to “inhibition of attachment … to HFF cells”) [4] was “exception” and the ID50 [2, 6] was 2.3 µg/mL (≈ 8.15 µM). The IC50 [2, 7] was 8000 nM and the IC50 [2, 9] was 2 to 3 µg/mL.

`C[C@H]1[C@@H](CCCO)O[C@@H]2O[C@]3(C)CC[C@H]4[C@H](C)CC[C@@H]1[C@@]24OO3` [Compound 2a, ART-PrOH] showed an ID50 [2, 6] of 2.7 µg/mL (≈ 8.27 µM), an IC50 [2, 7] of 8300 nM and an IC50 [2, 9] of 2 to 3 µg/mL.

`CC1CCC2C(C)C(CCCOC(=O)c3ccccc3)OC3OC4(C)CCC1C32OO4` (stereo not drawn) [Compound 2b] was tested, and the ID50 [2, 6] was 0.6 µg/mL (≈ 1.39 µM) and the IC50 [2, 10] was 1400 nM.

`CC1CCC2C(C)C(CCCOC(=O)c3ccccc3Br)OC3OC4(C)CCC1C32OO4` (stereo not drawn) [Compound 2c] showed an ID50 [2, 6] of 0.6 µg/mL (≈ 1.18 µM) and an IC50 [2, 10] of 1200 nM.

`CC(C)=CCCC(C)CCOCCCC1OC2OC3(C)CCC4C(C)CCC(C1C)C24OO3` (stereo not drawn) [Compound 2d] was tested, and the “concentration of 50% cytotoxicity (TD50)” value [1] was > 160 µg/mL, the ID50 [2, 6] was 0.5 µg/mL (≈ 1.08 µM) and the IC50 [2, 10] was 1100 nM.

In the case of `CC1=C(c2nccs2)OC2OC3(C)CCC4C(C)CCC1C24OO3` (stereo not drawn) [Compound 3a, DART-Thiaz], the “inhibition of T. gondii replication” value [3] is reported as “moderate inhibition” and the IC50 [2, 11] is reported as 1700 nM.

For `CC1=C(c2nc3ccccc3s2)OC2OC3(C)CCC4C(C)CCC1C24OO3` (stereo not drawn) [Compound 3b, DART-Benzothiazole], the “inhibition of T. gondii replication” value [3] was “quite effective” and the IC50 [2, 11] was 1000 nM.

For `CC1=C(C=O)OC(C)C1C` (stereo not drawn) [Compound 3c, DART-ald], the “inhibition of T. gondii replication” value [3] was “quite effective” and the IC50 [2, 8] was 1000 nM.

For `CC1=C(C(=O)O)OC(C)C1C` (stereo not drawn) [Compound 3d, DART-C(O)—OH], the “inhibition of T. gondii replication” value [3] was “ineffective” and the IC50 [2, 8] was 40300 nM.

For `COC(=O)C1=C(C)C(C)C(C)O1` (stereo not drawn) [Compound 3e, DART-C(O)—OMe], the “inhibition of T. gondii replication” value [3] was “moderate inhibition”, the “concentration of 50% cytotoxicity (TD50)” value ([1]; human) was > 160 µg/mL and the IC50 [2, 8] was 2900 nM.

For `CCNC(=O)C1=C(C)C(C)C(C)O1` (stereo not drawn) [Compound 3f, DART-C(O)—NHEt], the “inhibition of T. gondii replication” value [3] was “moderate inhibition”, the “inhibition of attachment … to HFF cells” value [4] was “exception” and the IC50 [2, 8] was 4400 nM.

In the case of `C[C@H]1[C@@H](CCCO)O[C@@H]2O[C@]3(C)CC[C@H]4[C@H](C)CC[C@@H]1[C@@]24O3` [Deoxy-2a, Deoxy-ART-PrOH], the ID50 [2, 6] is reported as 173 µg/mL (≈ 557 µM), the IC50 [2, 7] is reported as 560000 nM and the “antitoxoplasma inhibitory activity (growth inhibition assay)” value [2] is reported as “virtually no inhibitory activity; also recorded: devoid of antitoxoplasma activity”. For the same molecule, the antimalaria activity [5] was “virtually no antimalaria activity”.

With `CC1=C(c2nccs2)OC2O[C@]3(C)CC[C@H]4[C@H](C)CC[C@@H]1[C@@]24O3` (stereo partly drawn) [Deoxy-3a, deoxy-DART-thiaz] the “inhibition of T. gondii replication” value [3] was “ineffective”, the “inhibition of attachment … to HFF cells” value [4] was “effective in inhibition of attachment” and the IC50 [2, 8] was 960000 nM. For the same molecule, the “antitoxoplasma inhibitory activity (growth inhibition assay)” value [2] was “little or no efficacy; also recorded: devoid of antitoxoplasma activity” and the antimalaria activity [5] was “virtually no antimalaria activity”.

In the case of `COc1cc(Cc2cnc(N)nc2N)cc(OC)c1OC` [Trimethoprim, reference compound], the “concentration of 50% cytotoxicity (TD50)” value ([1]; human) is reported as 60 µg/mL, the ID50 [2, 6] is reported as 5.2 µg/mL (≈ 17.9 µM) and the IC50 ([2]; Toxoplasma gondii, Fibroblast, read-out: ID50) is reported as 17900 nM. The IC50 ([2]; Toxoplasma gondii, read-out: ID50) was 19000 nM and the IC50 ([2]; Toxoplasma gondii, read-out: concentration inhibiting toxoplasma replication) was 5.2 µg/mL.
